According to patent US20250059164A1, “IRAK DEGRADERS AND USES THEREOF” (Kymera Therapeutics, Inc., priority 2023, published 2025):

Key:
IRAK4 = target: T1, IRAK4 (Homo sapiens, UniProt Q9NWZ3); assay: IRAK4 MSD degradation in OCI-LY10; format: cell-based; settings: OCI-LY10 cells, 24 hrs, Meso Scale Discovery
T1 construct: endogenous in cells; host or cells: OCI-LY10
T1 sequence (Q9NWZ3 1-460): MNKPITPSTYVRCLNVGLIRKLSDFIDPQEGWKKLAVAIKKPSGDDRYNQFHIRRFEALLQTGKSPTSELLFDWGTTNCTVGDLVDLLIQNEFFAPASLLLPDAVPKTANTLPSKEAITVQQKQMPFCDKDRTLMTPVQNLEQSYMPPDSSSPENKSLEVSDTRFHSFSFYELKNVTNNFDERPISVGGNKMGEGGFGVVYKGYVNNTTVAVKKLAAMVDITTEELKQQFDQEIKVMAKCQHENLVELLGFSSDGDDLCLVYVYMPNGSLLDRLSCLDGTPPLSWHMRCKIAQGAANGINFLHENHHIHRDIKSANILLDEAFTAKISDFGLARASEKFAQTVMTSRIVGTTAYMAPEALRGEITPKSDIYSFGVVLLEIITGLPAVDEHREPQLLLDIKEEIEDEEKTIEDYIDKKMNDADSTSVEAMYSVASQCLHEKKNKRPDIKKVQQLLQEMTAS
In short: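 Remaining IRAK4 protein measured by Meso Scale Discovery electrochemiluminescence sandwich assay on lysates of OCI-LY10 cells. Cells were exposed for 4 to 24 hours (37° C., 5% CO2) to eight 1:3-diluted concentrations starting at 1 to 10 μM. DC50 derived by three-parameter logistic fitting.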

[1] = Rodent pharmacokinetics (rat PK); format: in vivo; settings: po, dosed intravenously or orally by gavage, plasma, read-out: F % (bioavailability)
Experimental: All studies related to handling, care, and treatment of rats in the study were performed according to the guidelines approved by the Institutional Animal Care and Use Committee (IACUC). All rats had access to food and water ad libitum. Rats were dosed intravenously or orally by gavage. Whole blood was collected from the jugular vein immediately prior to dosing and at 5 (intravenously administered drugs only), 15, and 30 min and 1, 2, 4, 8, and 24 h after drug administration. After sampling, whole blood was centrifuged at 4,000×g for 5 min at 4° C. to obtain plasma.
The letter codes for bioavailability (F %) include: A (≥5%) and B (≤5%).

DC50 (IRAK4)	bioavailability [1]	Structure (SMILES)
< 10 nM	≤ 5%	Cn1c(=O)n(C2CCC(=O)NC2=O)c2cccc(N3CCC4(CCN(C[C@H]5CC[C@H](n6cc7cc(NC(=O)c8cncc(Cl)c8)c(C(C)(C)O)cc7n6)CC5)CC4(F)F)CC3)c21 (stereo partly drawn) [I-387]
< 10 nM	≤ 5%	Cn1c(=O)n(C2CCC(=O)NC2=O)c2cccc([C@@H]3CCN(C[C@H]4CC[C@H](n5cc6cc(NC(=O)c7cncc(C(F)F)n7)ccc6n5)CC4)CC3(F)F)c21 (stereo partly drawn) [I-384]
> 200 nM	≥ 5%	Cn1c(=O)n(C2CCC(=O)NC2=O)c2cccc(N3CCC4(CCN(C[C@H]5CC[C@H](c6nc7cc(C(C)(C)O)c(NC(=O)c8cccc(C(F)(F)F)n8)cc7o6)CC5)CC4(F)F)CC3)c21 (stereo partly drawn) [I-408]
< 10 nM	≥ 5%	Cn1nc(C2CCC(=O)NC2=O)c2cccc([C@@H]3CCN(C[C@H]4CC[C@H](n5cc6cc(NC(=O)c7cncc(C(F)(F)F)n7)ncc6n5)CC4)C[C@H]3F)c21 (single isomer, unassigned) [I-370]
> 200 nM	≤ 5%	COc1ccc2c(c1N1CC3(CCN(C[C@H]4CC[C@H](c5nc6cc(C(C)(C)O)c(NC(=O)c7cncc(C#N)c7)cc6o5)CC4)CC3(F)F)C1)n(C)c(=O)n2C1CCC(=O)NC1=O (stereo partly drawn) [I-413]
100 to 200 nM	≤ 5%	COc1ccc2c(c1N1CC3(CCN(C[C@H]4CC[C@H](c5nc6cc(C(C)(C)O)c(NC(=O)c7cncc(C#N)c7)cc6s5)CC4)CC3(F)F)C1)n(C)c(=O)n2C1CCC(=O)NC1=O (stereo partly drawn) [I-412]
< 10 nM	≤ 5%	COc1cc(NC(=O)c2cncc(C(F)(F)F)n2)cc2cn([C@H]3CC[C@H](CN4CC[C@@H](c5cccc6c5n(C)c(=O)n6C5CCC(=O)NC5=O)C(F)(F)C4)CC3)nc12 (stereo partly drawn) [I-374]
> 200 nM	≥ 5%	Cc1cc(C(=O)Nc2ccc3nn([C@H]4CC[C@H](CN5CC[C@@H](c6cccc7c6n(C)c(=O)n7C6CCC(=O)NC6=O)[C@H](F)C5)CC4)cc3c2)nc(C(F)(F)F)c1 (stereo partly drawn) [I-395]

More lines, now with the values behind:

Structure (SMILES)	DC50 (IRAK4)	bioavailability [1]
COc1ccc2c(c1N1CC3(CCN(C[C@H]4CC[C@H](n5cc6cc(NC(=O)c7cncc(C#N)c7)c(C(C)(C)O)cc6n5)CC4)CC3(F)F)C1)n(C)c(=O)n2C1CCC(=O)NC1=O (mixture of isomers) [I-227, 5-Cyano-N-[2-[4-[[2-[1-(2,6-dioxo-3-piperidyl)-5-methoxy-3-methyl-2-oxo-benzimidazol-4-yl]-5,5-difluoro-2,7-diazaspiro [3.5]nonan-7-yl]methyl]cyclohexyl]-6-(1-hydroxy-1-methyl-ethyl)indazol-5-yl]pyridine-3-carboxamide]	< 10 nM	≤ 5%
Cn1c(=O)n(C2CCC(=O)NC2=O)c2cccc(N3CCC4(CCN(C[C@H]5CC[C@H](c6nc7cc(C(C)(C)O)c(NC(=O)c8cncc(C#N)c8)cc7s6)CC5)CC4(F)F)CC3)c21 (stereo partly drawn) [I-364]	100 to 200 nM	≤ 5%
COc1cc2nn([C@H]3CC[C@H](CN4CC[C@@H](c5cccc6c5n(C)c(=O)n6C5CCC(=O)NC5=O)[C@H](F)C4)CC3)cc2cc1NC(=O)c1cncc(C(F)(F)F)c1 (stereo partly drawn) [I-252]	< 10 nM	≤ 5%
Cn1c(=O)n(C2CCC(=O)NC2=O)c2cccc(C#CCN3CCN(C[C@H]4CC[C@H](n5cc(NC(=O)c6cnn7ccc(N8C[C@H]9C[C@@H]8CO9)nc67)c(C(F)F)n5)CC4)C(=O)C3)c21 (stereo partly drawn) [I-185]	< 10 nM	≤ 5%
Cn1c(=O)n(C2CCC(=O)NC2=O)c2cccc([C@@H]3CCN(C[C@H]4CC[C@H](n5cc6cc(NC(=O)c7csc(C(F)(F)F)n7)ccc6n5)CC4)C[C@H]3F)c21 (stereo partly drawn) [I-149]	< 10 nM	≤ 5%
Cn1c(=O)n(C2CCC(=O)NC2=O)c2cccc(N3CC[C@H](NC[C@H]4CC[C@H](n5cc(NC(=O)c6cnn7ccc(N8C[C@H]9C[C@@H]8CO9)nc67)c(C(F)F)n5)CC4)[C@@H](F)C3)c21 (stereo partly drawn) [I-135]	< 10 nM	≥ 5%
Cn1c(=O)n(C2CCC(=O)NC2=O)c2cccc([C@@H]3CCN(C[C@H]4CC[C@H](c5nc6cc(C(C)(C)O)c(NC(=O)c7cccc(C(F)(F)F)n7)cc6s5)CC4)C[C@H]3F)c21 (single isomer, unassigned) [I-102]	< 10 nM	≥ 5%
Cn1c(=O)n(C2CCC(=O)NC2=O)c2cccc([C@@H]3CCN(C[C@H]4CC[C@H](n5cc6cc(NC(=O)c7cncc(C8CC8)n7)ncc6n5)CC4)C[C@H]3F)c21 (stereo partly drawn) [I-338]	< 10 nM	≤ 5%
Cn1c(=O)n(C2CCC(=O)NC2=O)c2cccc([C@@H]3CCN(C[C@H]4CC[C@H](c5nc6cc(C(C)(C)O)c(NC(=O)c7cncc(C(F)(F)F)c7)cc6s5)CC4)C[C@H]3F)c21 (stereo partly drawn) [I-163]	< 10 nM	≥ 5%
COc1cc2nc([C@H]3CC[C@H](CN4CC[C@@H](c5cccc6c5n(C)c(=O)n6C5CCC(=O)NC5=O)[C@H](F)C4)CC3)cn2cc1NC(=O)c1cncc(C(F)(F)F)n1 (stereo partly drawn) [I-308]	< 10 nM	≤ 5%
Cn1c(=O)n(C2CCC(=O)NC2=O)c2cccc(C#CCN3CCN(C[C@H]4CC[C@H](n5cc(NC(=O)c6cnn7ccc(N8C[C@H]9C[C@@H]8CO9)nc67)c(C(F)F)n5)CC4)C[C@H]3C(F)(F)F)c21 (single isomer, unassigned) [I-304]	10 to 100 nM	≥ 5%
COc1cc2nn([C@H]3CC[C@H](CN4CCC5(CN(c6cccc7c6n(C)c(=O)n7C6CCC(=O)NC6=O)C5)C(F)(F)C4)CC3)cc2cc1NC(=O)c1cccc(C(F)(F)F)c1 (stereo partly drawn) [I-255]	< 10 nM	≤ 5%
COc1cc2nn([C@H]3CC[C@H](CN4CC[C@H](c5cccc6c5n(C)c(=O)n6C5CCC(=O)NC5=O)C(F)(F)C4)CC3)cc2cc1NC(=O)c1cncc(C#N)c1 (single isomer, unassigned) [I-106]	< 10 nM	≤ 5%
CN(C[C@H]1CC[C@H](n2cc(NC(=O)c3cnn4cccnc34)c(C(F)F)n2)CC1)[C@@H]1CCN(c2cccc3c2n(C)c(=O)n3C2CCC(=O)NC2=O)C[C@@H]1F (single isomer, unassigned) [I-281]	< 10 nM	≥ 5%
Cn1c(=O)n(C2CCC(=O)NC2=O)c2cccc([C@@H]3CCN(C[C@H]4CC[C@H](n5cc6cc(NC(=O)c7nc(C(F)(F)F)cs7)ccc6n5)CC4)C[C@H]3F)c21 (stereo partly drawn) [I-154]	< 10 nM	≤ 5%
CN(C[C@H]1CC[C@H](c2nc3cc(C(C)(C)O)c(NC(=O)c4cccc(C(F)(F)F)n4)cc3o2)CC1)[C@@H]1CCN(c2cccc3c2n(C)c(=O)n3C2CCC(=O)NC2=O)C[C@H]1F (stereo partly drawn) [I-137]	< 10 nM	≥ 5%
CN(C[C@H]1CC[C@H](c2cn3cc(NC(=O)c4cncc(C(F)(F)F)n4)ccc3n2)CC1)[C@@H]1CCN(c2cccc3c2n(C)c(=O)n3C2CCC(=O)NC2=O)C[C@@H]1F (single isomer, unassigned) [I-213]	< 10 nM	≤ 5%
Cn1c(=O)n(C2CCC(=O)NC2=O)c2cccc([C@@H]3CCN(C[C@H]4CC[C@H](n5cc6cc(NC(=O)c7cc(C(F)(F)F)ncn7)ccc6n5)CC4)C[C@H]3F)c21 (stereo partly drawn) [I-196]	> 200 nM	≤ 5%
Cn1c(=O)n(C2CCC(=O)NC2=O)c2cccc([C@@H]3CCN(C[C@H]4CC[C@H](c5cn6cc(NC(=O)c7cncc(C(F)(F)F)n7)c(C(C)(C)O)cc6n5)CC4)C[C@H]3F)c21 (stereo partly drawn) [I-343]	< 10 nM	≤ 5%
